{"source": "paper PMC4579064", "about": "(Toxicology and applied pharmacology, 2015)", "key": {"CYP2C9": {"target": "CYP2C9 (Homo sapiens, UniProt P11712)", "sequence (P11712 whole entry, one chain of several)": "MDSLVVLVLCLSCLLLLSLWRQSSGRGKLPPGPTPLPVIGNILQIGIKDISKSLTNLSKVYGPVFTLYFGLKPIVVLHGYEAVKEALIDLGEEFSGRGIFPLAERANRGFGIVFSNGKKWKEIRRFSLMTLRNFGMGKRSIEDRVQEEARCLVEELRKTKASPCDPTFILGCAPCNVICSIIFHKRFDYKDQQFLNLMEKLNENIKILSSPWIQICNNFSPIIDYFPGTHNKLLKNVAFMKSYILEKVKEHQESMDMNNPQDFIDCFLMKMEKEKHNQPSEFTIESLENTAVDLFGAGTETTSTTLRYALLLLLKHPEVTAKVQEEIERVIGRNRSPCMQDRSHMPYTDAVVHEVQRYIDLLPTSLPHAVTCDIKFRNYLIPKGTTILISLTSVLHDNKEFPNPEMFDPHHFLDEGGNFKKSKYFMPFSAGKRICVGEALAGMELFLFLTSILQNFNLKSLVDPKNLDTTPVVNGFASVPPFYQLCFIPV", "test": "recombinant CYP activity with fluorogenic substrate", "assay_type": "biochemical"}, "CYP2E1": {"target": "CYP2E1 (Homo sapiens, UniProt P05181)", "sequence (P05181 whole entry, one chain of several)": "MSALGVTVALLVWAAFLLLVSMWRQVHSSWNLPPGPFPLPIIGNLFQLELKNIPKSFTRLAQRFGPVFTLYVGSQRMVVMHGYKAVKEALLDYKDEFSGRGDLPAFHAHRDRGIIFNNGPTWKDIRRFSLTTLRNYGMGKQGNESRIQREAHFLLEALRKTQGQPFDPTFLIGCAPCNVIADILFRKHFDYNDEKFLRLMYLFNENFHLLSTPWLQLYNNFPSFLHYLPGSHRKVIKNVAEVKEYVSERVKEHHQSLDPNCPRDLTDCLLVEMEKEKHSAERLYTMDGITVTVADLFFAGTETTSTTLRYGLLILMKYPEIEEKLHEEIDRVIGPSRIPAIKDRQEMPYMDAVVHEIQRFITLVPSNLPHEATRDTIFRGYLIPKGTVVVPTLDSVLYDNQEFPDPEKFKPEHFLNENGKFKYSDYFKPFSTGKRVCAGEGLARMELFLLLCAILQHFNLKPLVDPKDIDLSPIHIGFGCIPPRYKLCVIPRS", "test": "recombinant CYP activity with fluorogenic substrate", "assay_type": "biochemical"}, "human liver microsomes": {"system": "human liver microsomes", "test": "paraoxon formation from parathion", "assay_type": "biochemical"}, "CYP1A2 [1]": {"target": "T1, CYP1A2 (Homo sapiens, UniProt P05177)", "T1 sequence (P05177 2-516 limits assumed)": "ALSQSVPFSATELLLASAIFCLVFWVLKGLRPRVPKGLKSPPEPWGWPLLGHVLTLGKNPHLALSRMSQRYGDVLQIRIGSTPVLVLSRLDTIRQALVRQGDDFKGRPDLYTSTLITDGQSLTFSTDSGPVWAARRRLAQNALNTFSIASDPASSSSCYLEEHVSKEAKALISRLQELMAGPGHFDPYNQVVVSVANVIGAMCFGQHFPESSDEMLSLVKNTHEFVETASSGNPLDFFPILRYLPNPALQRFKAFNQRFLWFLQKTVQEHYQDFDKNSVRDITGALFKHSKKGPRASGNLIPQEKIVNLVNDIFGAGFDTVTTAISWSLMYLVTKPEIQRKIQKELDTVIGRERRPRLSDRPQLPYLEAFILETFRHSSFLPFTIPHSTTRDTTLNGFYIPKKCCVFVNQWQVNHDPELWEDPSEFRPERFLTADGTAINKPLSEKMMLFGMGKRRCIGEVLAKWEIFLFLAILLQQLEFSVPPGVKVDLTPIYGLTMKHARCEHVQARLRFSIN"}, "CYP2B6": {"target": "T2, CYP2B6 (Homo sapiens, UniProt P20813)", "T2 sequence (P20813 1-491)": "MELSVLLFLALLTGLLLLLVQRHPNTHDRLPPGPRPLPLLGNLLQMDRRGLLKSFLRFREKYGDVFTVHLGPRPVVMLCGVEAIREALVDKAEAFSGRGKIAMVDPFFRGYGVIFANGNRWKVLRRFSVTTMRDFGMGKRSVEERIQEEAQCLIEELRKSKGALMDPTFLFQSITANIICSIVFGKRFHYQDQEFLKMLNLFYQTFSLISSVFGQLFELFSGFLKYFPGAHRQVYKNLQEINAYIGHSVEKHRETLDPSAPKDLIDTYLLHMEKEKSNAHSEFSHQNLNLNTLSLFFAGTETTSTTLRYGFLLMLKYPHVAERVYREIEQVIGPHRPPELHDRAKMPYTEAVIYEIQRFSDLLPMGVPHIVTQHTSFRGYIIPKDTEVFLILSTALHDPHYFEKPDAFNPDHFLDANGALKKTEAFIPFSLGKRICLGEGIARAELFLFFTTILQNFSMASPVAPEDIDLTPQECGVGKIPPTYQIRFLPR"}, "female Long-Evans rats": {"system": "female Long-Evans rats", "details": "menadione 40 mg/kg ip 20 min after parathion 8 mg/kg oral"}, "CYP1A1": {"target": "T3, CYP1A1 (Homo sapiens, UniProt P04798)", "T3 sequence (P04798 1-512)": "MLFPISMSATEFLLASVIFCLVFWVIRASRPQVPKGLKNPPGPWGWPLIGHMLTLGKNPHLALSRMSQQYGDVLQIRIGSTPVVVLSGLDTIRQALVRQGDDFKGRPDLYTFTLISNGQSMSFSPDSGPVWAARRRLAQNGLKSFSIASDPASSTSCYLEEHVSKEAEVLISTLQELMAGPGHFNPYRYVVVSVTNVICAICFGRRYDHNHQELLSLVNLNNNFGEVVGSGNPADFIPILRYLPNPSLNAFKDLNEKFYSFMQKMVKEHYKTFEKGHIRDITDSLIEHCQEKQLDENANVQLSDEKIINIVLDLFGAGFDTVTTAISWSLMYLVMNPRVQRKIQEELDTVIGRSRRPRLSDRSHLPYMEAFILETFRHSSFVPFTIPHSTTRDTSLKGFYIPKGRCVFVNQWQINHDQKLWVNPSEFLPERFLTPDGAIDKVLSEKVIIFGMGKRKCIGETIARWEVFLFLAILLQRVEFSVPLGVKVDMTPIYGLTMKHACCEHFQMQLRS", "T3 sequence (P16435 2-677 partner)": "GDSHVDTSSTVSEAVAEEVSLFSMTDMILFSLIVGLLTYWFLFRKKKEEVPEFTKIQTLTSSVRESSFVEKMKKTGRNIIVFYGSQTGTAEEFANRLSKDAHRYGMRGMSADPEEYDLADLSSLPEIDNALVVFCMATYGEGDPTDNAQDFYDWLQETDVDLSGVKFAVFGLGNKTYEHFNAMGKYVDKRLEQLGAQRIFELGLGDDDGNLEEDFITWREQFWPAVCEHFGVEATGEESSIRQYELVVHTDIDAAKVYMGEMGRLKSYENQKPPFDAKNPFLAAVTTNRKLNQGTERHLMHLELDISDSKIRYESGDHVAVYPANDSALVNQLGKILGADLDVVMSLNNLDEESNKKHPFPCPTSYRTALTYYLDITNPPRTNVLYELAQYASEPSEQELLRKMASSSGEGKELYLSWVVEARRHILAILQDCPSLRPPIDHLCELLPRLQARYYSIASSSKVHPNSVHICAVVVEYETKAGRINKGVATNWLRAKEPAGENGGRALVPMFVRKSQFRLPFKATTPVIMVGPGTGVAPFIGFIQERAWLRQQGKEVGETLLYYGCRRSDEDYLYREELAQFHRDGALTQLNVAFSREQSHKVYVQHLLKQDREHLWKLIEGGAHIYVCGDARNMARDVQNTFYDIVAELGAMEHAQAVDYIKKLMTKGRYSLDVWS", "test": "recombinant CYP activity with fluorogenic substrate"}, "CYP1A2 [2]": {"target": "T1, CYP1A2", "test": "recombinant CYP activity with fluorogenic substrate"}}}
{"smiles": "CC1=CC(=O)c2ccccc2C1=O", "note": "[menadione, 2-methylnaphthalene-1,4-dione]", "values": [{"measurement": "IC50", "setting": "CYP2C9", "value": "8.91 ± 0.57", "unit": "µM"}, {"measurement": "IC50", "setting": "CYP2E1", "value": "5.58 ± 1.22", "unit": "µM"}, {"measurement": "paraoxon formation", "setting": "human liver microsomes", "value": "marked decrease"}, {"measurement": "paraoxon formation", "setting": "CYP1A2 [1]", "value": "marked decrease"}, {"measurement": "paraoxon formation", "setting": "CYP2B6", "value": "marked decrease"}, {"measurement": "parathion toxicity (startle response, tremulous jaw movement, tremors and convulsions)", "setting": "female Long-Evans rats", "value": "marked reduction"}, {"measurement": "IC50", "setting": "CYP1A1", "value": "4.39 ± 0.42", "unit": "µM"}, {"measurement": "IC50", "setting": "CYP1A2 [2]", "value": "4.51 ± 0.57", "unit": "µM"}]}
